Reference: the supplement of paper PMC10307832

What follows are cell lines tested with CC1=C(C(=NN1)C)CC2=C(C3=C(S2)N(C(=O)N(C3=O)C)CC(C)C)C(=O)N4C[C@@H](CO4)O + Cc1nc(Nc2ncc(C(=O)Nc3c(C)cccc3Cl)s2)cc(N2CCN(CCO)CC2)n1 [Dasatinib] (partner 0.075 µM) (assay: relative viability (nuclei count vs DMSO), 5 days (fraction); higher = more cells survive). Conditions: first compound 0.25 µM.
In short: (§1)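 Cells from lung cancer lines were seeded into 1536-well plates and, one day later, dosed by pin tool. Treatments were either a single drug or a fixed dose of an anchor drug with five library-drug doses (not always all listed) in √10 steps. After 5 days, nuclei were stained in a one-step fixation (final 0.05% Triton X-100, 1% formaldehyde, 1 ug/ml Hoechst) and counted on 4× images, and relative viability is the treated-to-vehicle nuclei ratio, as the median of duplicate plates.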

In the case of PC-3 [JPC-3], the relative viability was 0.975.

These cell lines were tested with CC1=C(C(=NN1)C)CC2=C(C3=C(S2)N(C(=O)N(C3=O)C)CC(C)C)C(=O)N4C[C@@H](CO4)O + CCNC(=O)c1noc(-c2cc(C(C)C)c(O)cc2O)c1-c1ccc(CN2CCOCC2)cc1 [Luminespib] (partner 0.01 µM) in the same assay as above. Conditions: first compound 0.0025 µM.
In short: as §1

Compared with LC-2-ad, NCI-H1944 is lower in relative viability: 0.967 for the first, 0.81 for the second.

First: NCI-H1975
Second: RERF-LC-KJ
The relative viability of the first is lower: 0.237 for the first, 1.25 for the second.

Going from NCI-H358 to NCI-H650, the relative viability rises from 0.342 to 0.84.

PC-3 [JPC-3] showed a relative viability of 0.801.

Same assay, conditions: first compound 0.007906 µM

Going from LC-2-ad to NCI-H1944, the relative viability falls from 1.13 to 1.11.

Compared with NCI-H1975, RERF-LC-KJ is higher in relative viability: 0.294 for the first, 1.36 for the second.

Going from ABC-1 to NCI-H358, the relative viability falls from 0.606 to 0.471.

Compared with NCI-H650, PC-3 [JPC-3] is lower in relative viability: 0.798 for the first, 0.601 for the second.

Same assay, conditions: first compound 0.025 µM

Going from LC-2-ad to NCI-H1944, the relative viability falls from 0.968 to 0.714.

Going from NCI-H1975 to RERF-LC-KJ, the relative viability rises from 0.168 to 1.22.

Going from NCI-H358 to NCI-H650, the relative viability rises from 0.401 to 0.72.

In the case of PC-3 [JPC-3], the relative viability was 0.699.

Same assay, conditions: first compound 0.07906 µM

First: LC-2-ad
Second: NCI-H1944
The relative viability of the first is higher: 1.01 for the first, 0.698 for the second.

Compared with NCI-H1975, RERF-LC-KJ is higher in relative viability: 0.16 for the first, 1.16 for the second.

First: ABC-1
Second: NCI-H358
The relative viability of the first is lower: 0.349 for the first, 0.447 for the second.

Compared with NCI-H650, PC-3 [JPC-3] is lower in relative viability: 0.829 for the first, 0.773 for the second.

Same assay, conditions: first compound 0.25 µM

First: LC-2-ad
Second: NCI-H1944
The relative viability of the first is higher: 1.17 for the first, 0.801 for the second.

First: NCI-H1975
Second: RERF-LC-KJ
The relative viability of the first is lower: 0.147 for the first, 1.32 for the second.

First: ABC-1
Second: NCI-H358
The relative viability of the first is higher: 0.531 for the first, 0.308 for the second.

First: NCI-H650
Second: PC-3 [JPC-3]
The relative viability of the first is higher: 0.951 for the first, 0.786 for the second.

The cell lines below were run with Cc1ccccc1C(C(=O)NC1CCCCC1)N(C(=O)Cn1ccnc1C)c1cccc(F)c1 [IDH-C35] + Cc1cc(Nc2cc(N3CCN(C)CC3)nc(Sc3ccc(NC(=O)C4CC4)cc3)n2)n[nH]1 [Tozasertib] (partner 0.1 µM) in the same assay as above. Conditions: first compound 0.08 µM.
In short: as §1

Compared with LC-2-ad, NCI-H1944 is lower in relative viability: 0.472 for the first, 0.249 for the second.

Going from NCI-H1975 to RERF-LC-KJ, the relative viability falls from 0.782 to 0.396.

Compared with ABC-1, NCI-H358 is lower in relative viability: 0.188 for the first, 0.099 for the second.

Going from NCI-H650 to PC-3 [JPC-3], the relative viability rises from 0.669 to 0.803.

Same assay, conditions: first compound 0.253 µM

Going from LC-2-ad to NCI-H1944, the relative viability falls from 0.435 to 0.248.

Going from NCI-H1975 to RERF-LC-KJ, the relative viability falls from 0.898 to 0.503.

Compared with ABC-1, NCI-H358 is lower in relative viability: 0.171 for the first, 0.112 for the second.

Compared with NCI-H650, PC-3 [JPC-3] is higher in relative viability: 0.765 for the first, 0.898 for the second.

Same assay, conditions: first compound 0.8 µM

Going from LC-2-ad to NCI-H1944, the relative viability falls from 0.503 to 0.246.

Going from NCI-H1975 to RERF-LC-KJ, the relative viability falls from 0.673 to 0.489.

First: ABC-1
Second: NCI-H358
The relative viability of the first is higher: 0.188 for the first, 0.112 for the second.

Compared with NCI-H650, PC-3 [JPC-3] is higher in relative viability: 0.768 for the first, 0.861 for the second.

Same assay, conditions: first compound 2.53 µM

First: NCI-H1944
Second: NCI-H1975
The relative viability of the first is lower: 0.253 for the first, 0.672 for the second.

Going from RERF-LC-KJ to ABC-1, the relative viability falls from 0.544 to 0.146.

First: NCI-H358
Second: PC-3 [JPC-3]
The relative viability of the first is lower: 0.0888 for the first, 0.852 for the second.

Same assay, conditions: first compound 8 µM

Compared with LC-2-ad, NCI-H1944 is lower in relative viability: 0.428 for the first, 0.265 for the second.

First: NCI-H1975
Second: RERF-LC-KJ
The relative viability of the first is higher: 0.691 for the first, 0.442 for the second.

Going from ABC-1 to NCI-H358, the relative viability falls from 0.176 to 0.0934.

Compared with NCI-H650, PC-3 [JPC-3] is higher in relative viability: 0.698 for the first, 0.927 for the second.
